# Reference: the supplement of paper PMC10307832
# How the values were obtained:
# Experiment in all cases: relative viability (nuclei count vs DMSO), 5 days (fraction); higher = more cells survive
# [1] = compound: NC1(c2ccc(-c3nc4ccn5c(=O)[nH]nc5c4cc3-c3ccccc3)cc2)CCC1 [MK-2206] + COc1cccc2cc(-c3nc([C@H]4CC[C@H](C(=O)O)CC4)n4ncnc(N)c34)[nH]c12 [OSI-027] (partner 0.5 µM)
# Procedure, shortened: (§1)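 The day after seeding in 1536-well plates, lung cancer cell lines were treated by pin tool with a single drug, or with a fixed anchor-drug dose together with five library-drug doses (not always all listed) in √10 steps. After 5 days, a combined fix-and-stain solution (final 0.05% Triton X-100, 1% formaldehyde, 1 ug/ml Hoechst) was added. Nuclei counted on 4× images gave relative viability as treated counts over vehicle counts, reported as the median of duplicate plates.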
# [2] = compound: CS(=O)(=O)N1CCN(Cc2cc3nc(-c4cccc5[nH]ncc45)nc(N4CCOCC4)c3s2)CC1 [Pictilisib] + C[C@]1(O)C[C@@H](c2nc(-c3ccc4ccc(-c5ccccc5)nc4c3)c3c(N)nccn32)C1 [Linsitinib] (partner 1 µM)
# Procedure, shortened: as §1
# [3] = compound: CS(=O)(=O)N1CCN(Cc2cc3nc(-c4cccc5[nH]ncc45)nc(N4CCOCC4)c3s2)CC1 [Pictilisib] + CCNC(=O)c1noc(-c2cc(C(C)C)c(O)cc2O)c1-c1ccc(CN2CCOCC2)cc1 [Luminespib] (partner 0.01 µM)
# Procedure, shortened: as §1
# [4] = compound: CS(=O)(=O)N1CCN(Cc2cc3nc(-c4cccc5[nH]ncc45)nc(N4CCOCC4)c3s2)CC1 [Pictilisib] + Nc1nc2[nH]cc(CCc3ccc(C(=O)N[C@@H](CCC(=O)O)C(=O)O)cc3)c2c(=O)[nH]1 [Pemetrexed] (partner 0.2 µM)
# Procedure, shortened: as §1
# [5] = compound: NC1(c2ccc(-c3nc4ccn5c(=O)[nH]nc5c4cc3-c3ccccc3)cc2)CCC1 [MK-2206] + N=C(N)NC(=N)NCCc1ccccc1 [Phenformin] (partner 250 µM)
# Procedure, shortened: as §1
Cell Line,relative viability ([1]; first compound 0.01 µM),relative viability ([1]; first compound 0.03162 µM),relative viability ([1]; first compound 0.3162 µM),relative viability ([1]; first compound 1 µM),relative viability ([2]; first compound 0.02 µM),relative viability ([2]; first compound 0.06325 µM),relative viability ([2]; first compound 0.6325 µM),relative viability ([2]; first compound 2 µM),relative viability ([3]; first compound 0.02 µM),relative viability ([3]; first compound 0.06325 µM),relative viability ([3]; first compound 0.6325 µM),relative viability ([3]; first compound 2 µM),relative viability ([4]; first compound 0.02 µM),relative viability ([4]; first compound 0.06325 µM),relative viability ([4]; first compound 0.6325 µM),relative viability ([4]; first compound 2 µM),relative viability ([5]; first compound 0.01 µM),relative viability ([5]; first compound 0.03162 µM),relative viability ([5]; first compound 0.3162 µM),relative viability ([5]; first compound 1 µM)
LU99A,0.318,0.335,0.219,0.283,0.576,0.468,0.326,0.244,0.254,0.228,0.251,0.204,0.198,0.179,0.19,0.164,1.01,0.874,0.803,0.903
LXF-289,0.782,0.862,0.604,0.743,0.989,0.95,0.973,0.771,0.687,0.514,0.78,0.344,0.948,0.874,0.983,0.669,0.506,0.542,0.542,0.548
NCI-H23,0.646,0.503,0.455,0.337,0.632,0.641,0.605,0.423,0.203,0.219,0.198,0.203,0.618,0.757,0.5,0.374,0.688,0.844,0.673,0.666
NCI-H322M,0.484,0.49,0.386,0.377,0.82,0.837,0.623,0.656,0.857,0.763,0.511,0.263,0.541,0.616,0.584,0.239,0.756,0.822,0.725,0.769
NCI-H358,0.819,0.765,0.531,0.487,0.681,0.685,0.464,0.393,0.382,0.348,0.161,0.146,0.172,0.165,0.161,0.133,0.338,0.352,0.328,0.412
NCI-H441,0.922,0.473,0.428,0.393,0.58,0.581,0.414,0.325,0.307,0.236,0.269,0.221,0.279,0.276,0.256,0.202,0.974,0.865,0.656,0.449
NCI-H460,0.642,0.521,0.321,0.455,0.78,0.733,0.154,0.0347,0.0289,0.0281,0.0266,0.019,0.0594,0.0727,0.0616,0.0599,0.489,0.613,0.521,0.45
NCI-H520,0.243,0.233,0.17,0.238,0.975,1.09,0.56,0.208,0.212,0.221,0.223,0.217,0.613,0.624,0.268,0.148,0.551,0.523,0.212,0.254
NCI-H596,0.706,0.887,0.591,0.41,1.02,0.853,0.643,0.337,0.942,0.92,0.442,0.153,0.472,0.508,0.509,0.318,0.738,0.956,0.651,0.481
NCI-H647,0.573,0.584,0.469,0.641,1.16,1.15,1.02,0.439,0.124,0.151,0.265,0.185,0.172,0.175,0.143,0.141,0.479,0.542,0.38,0.542
NCI-H650,0.476,0.509,0.417,0.415,0.979,1.03,0.809,0.633,0.759,0.809,0.802,0.483,1.02,0.887,0.701,0.525,0.458,0.473,0.471,0.353
NCI-H661,0.729,0.659,0.563,0.584,0.527,0.428,0.455,0.233,0.969,0.938,0.953,0.813,0.956,0.982,0.9,0.711,0.252,0.289,0.257,0.255
NCI-H838,0.484,0.397,0.327,0.366,1.05,0.891,0.891,0.448,0.332,0.262,0.241,0.258,0.24,0.251,0.314,0.184,0.554,0.722,0.517,0.447
NCI-H1355,0.394,0.433,0.289,0.235,0.759,0.678,0.744,0.402,0.731,0.593,0.582,0.272,1.02,1.05,1.08,0.478,0.434,0.476,0.4,0.317
NCI-H1395,0.699,0.588,0.437,0.471,1.15,1.11,0.836,0.597,0.704,0.838,0.748,0.534,1.01,0.905,0.745,0.373,0.508,0.481,0.4,0.354
NCI-H1437,0.91,0.844,0.746,0.675,0.975,1.05,0.662,0.447,1.14,1.16,1.25,1.19,0.317,0.318,0.274,0.215,0.297,0.265,0.306,0.301

Cell Line,relative viability ([1]; first compound 0.01 µM),relative viability ([1]; first compound 0.03162 µM),relative viability ([1]; first compound 0.3162 µM),relative viability ([1]; first compound 1 µM),relative viability ([2]; first compound 0.02 µM),relative viability ([2]; first compound 0.06325 µM),relative viability ([2]; first compound 0.6325 µM),relative viability ([2]; first compound 2 µM),relative viability ([3]; first compound 0.02 µM),relative viability ([3]; first compound 0.06325 µM),relative viability ([3]; first compound 0.6325 µM),relative viability ([3]; first compound 2 µM),relative viability ([4]; first compound 0.02 µM),relative viability ([4]; first compound 0.06325 µM),relative viability ([4]; first compound 0.6325 µM),relative viability ([4]; first compound 2 µM),relative viability ([5]; first compound 0.01 µM),relative viability ([5]; first compound 0.03162 µM),relative viability ([5]; first compound 0.3162 µM),relative viability ([5]; first compound 1 µM)
NCI-H1563,0.756,0.727,0.626,0.6,1.16,1.1,0.835,0.6,0.44,0.513,0.497,0.468,0.742,0.764,0.635,0.45,0.625,0.601,0.606,0.616
NCI-H1651,0.786,0.684,0.807,0.784,0.922,0.953,0.817,0.616,0.841,0.65,0.889,0.473,0.516,0.591,0.519,0.38,0.362,0.302,0.336,0.365
NCI-H1666,0.845,0.806,0.729,0.767,0.744,0.696,0.608,0.431,1.02,1.07,0.937,0.651,0.947,0.846,0.737,0.725,0.586,0.595,0.568,0.563
NCI-H1734,0.603,0.572,0.366,0.356,0.901,0.797,0.615,0.332,0.174,0.179,0.164,0.171,0.39,0.417,0.39,0.355,0.355,0.458,0.304,0.338
NCI-H1755,0.76,0.723,0.509,0.6,1.02,0.975,0.906,0.53,0.412,0.384,0.305,0.189,0.472,0.397,0.396,0.329,0.68,0.632,0.551,0.587
NCI-H1792,0.718,0.824,0.686,0.622,0.502,0.547,0.446,0.262,0.366,0.41,0.25,0.225,0.924,0.954,0.553,0.177,0.329,0.351,0.161,0.184
NCI-H1793,0.274,0.288,0.229,0.199,0.829,0.819,0.554,0.336,0.152,0.189,0.152,0.168,0.828,0.754,0.522,0.276,0.386,0.47,0.206,0.218
NCI-H1915,0.646,0.693,0.606,0.496,1.07,1.06,1.12,1.07,0.784,0.864,0.699,0.642,0.548,0.524,0.464,0.394,0.351,0.384,0.379,0.367
NCI-H1944,0.478,0.447,0.361,0.326,1.09,1.38,0.786,0.643,0.768,0.46,0.498,0.239,0.649,0.487,0.469,0.287,0.197,0.217,0.169,0.185
NCI-H1975,0.745,0.611,0.42,0.381,0.781,0.821,0.418,0.249,0.19,0.172,0.142,0.136,0.304,0.301,0.272,0.193,0.428,0.402,0.312,0.326
NCI-H1993,0.493,0.579,0.469,0.595,0.774,0.71,0.636,0.655,0.73,0.634,0.55,0.523,0.608,0.605,0.449,0.442,0.496,0.491,0.562,0.568
NCI-H2009,0.63,0.582,0.497,0.399,1.21,1.18,1.16,0.799,1.01,1.05,1.04,0.773,1.04,1.12,1.17,0.875,0.474,0.464,0.436,0.4
NCI-H2023,0.407,0.366,0.208,0.227,0.508,0.414,0.208,0.264,0.936,0.753,0.286,0.103,0.195,0.228,0.171,0.105,0.398,0.416,0.343,0.271
NCI-H2085,0.676,0.819,0.474,0.365,0.86,0.835,0.786,0.334,0.44,0.431,0.409,0.265,0.826,0.911,0.401,0.303,0.713,0.834,0.681,0.59
NCI-H2087,0.548,0.636,0.392,0.303,1.12,1.02,0.918,0.944,0.138,0.144,0.19,0.165,0.7,0.736,0.612,0.553,0.531,0.361,0.404,0.317
